Several values for one entry are separate records, joined by “and”; a condition that tells them apart may be missing. Equal values may be shown once. Read-outs that look alike come from different tables or passages of the source. Ends that are not written are not given here.
Tests used:
P. aeruginosa [1] = assay: microbe, parasite or virus in culture; conditions: agent alone
Procedure: (§1) FICs are performed by checkerboard titrations of peptides in one dimension of a microtiter plate, and of antibiotics in the other dimension, for example. The FIC is calculated by looking at the impact of one antibiotic on the MIC of the other and vice versa. […] Preferably, an FIC of less than 0.5 is obtained for synergism. As used herein, FIC can be determined as follows: [formula]
(§2) Synergism is identified as an FIC of about ≦0.5.

E. cloacae = conditions: agent alone
Procedure: as §1, §2

A. calcoaceticus = conditions: agent alone
Procedure: as §1, §2

X. maltophila = assay: organism not typed; conditions: agent alone
Procedure: as §1, §2

B. Subtilis = assay: MIC, broth dilution in LB-S; format: cell-based; conditions: MBI 29 and MBI21 derivatives
Procedure: (§3) The biological activity of the peptides can be determined by standard methods known to those of skill in the art, such as “minimal inhibitory concentration (MIC)” assay described in the present examples, whereby the lowest concentration at which no change in OD is observed for a given period of time is recorded as MIC. Alternatively, “fractional inhibitory concentration (FIC)” is also useful for determination of synergy between the peptides of the invention, or the peptides in combination with known antibiotics. FICs are performed by checkerboard titrations of peptides in one dimension of a microtiter plate, and of antibiotics in the other dimension, for example. The FIC is calculated by looking at the impact of one antibiotic on the MIC of the other and vice versa. […] Preferably, an FIC of less than 0.5 is obtained for synergism. As used herein, FIC can be determined as follows: [formula]
(§4) Briefly, cells were grown overnight at 37° C. in LB-S (Luria broth without any salt supplement) and diluted one in 10,000 in the same medium to give concentrations of about 10^4 to 10^5 CFU/ml. The broth dilutions were set up in a 96 well microtiter plate by putting 200 μl of LB-S containing the initial concentration of antibiotic or compound in column 1 and 100 μl of the same medium in columns 2-12. The compounds were diluted by taking 100 μl of broth from column 1 and mixing it with column 2, resulting in a one in two dilution. This was continued to column 10. Finally, 10 μl of bacteria were pipetted into columns 1-11, and the plates incubated overnight at 37° C. The next day the plates were scored for growth in the wells, and the MIC determined.

E. coli = assay: MIC, broth dilution in LB-S; format: cell-based; conditions: for MIC E. coli 0111:B4: MBI 29 and MBI21 derivatives
Procedure: as §3, §4

S. aureus = assay: MIC, broth dilution in LB-S; format: cell-based; conditions: for MIC K147 / MIC SAP: MBI 29 and MBI21 derivatives; for MIC: Table 1a
Procedure: as §3, §4

E. faecalis = assay: MIC, broth dilution in LB-S; format: cell-based; conditions: MBI 29 and MBI21 derivatives
Procedure: as §3, §4

C610 = assay: MIC, broth dilution in LB-S; format: cell-based, S. typhimurium; conditions: MBI 29 and MBI21 derivatives
Procedure: as §3, §4

S. epidermis = conditions: for MIC S. epi 0017: MBI 29 and MBI21 derivatives
Procedure: as §1, §4

P. aeruginosa [2] = conditions: for MIC H103: MBI 29 and MBI21 derivatives
Procedure: as §1, §4

Candida albicans = assay: MIC, broth dilution in LB-S; format: cell-based; conditions: Candida alibicans (CAN105); Table 1a
Procedure: as §1, §4

[3] = P. aeruginosa isolate 24, strain 34
[4] = P. aeruginosa isolate 27, strain 14644
[5] = P. aeruginosa isolate 30, strain B3999-1
[6] = E. cloacae isolate 14, strain 938-2
[7] = A. calcoaceticus isolate 1, strain ATCC 23055
[8] = X. maltophila isolate 36, strain 16
[9] = X. maltophila isolate 39, strain B3110.1
[10] = X. maltophila isolate 42, strain TF29-1
[11] = X. maltophila isolate 43, strain TF29-2
[12] = X. maltophila isolate 44, strain W6896-2
[13] = P. aeruginosa isolate 28, strain 15036
[14] = X. maltophila isolate 35, strain 6
[15] = X. maltophila isolate 38, strain 7901
[16] = X. maltophila isolate 40, strain R1302-1
[17] = X. maltophila isolate 41, strain R4230
[18] = X. maltophila isolate 45, strain W11291

## NC[C@H]1O[C@H](O[C@H]2[C@H](O)[C@@H](O[C@H]3O[C@H](CO)[C@@H](O)[C@H](N)[C@H]3O)[C@H](N)C[C@@H]2N)[C@H](N)C[C@@H]1O [Tobramycin]
P. aeruginosa [1]; [3]
  MIC: 128 µg/mL
P. aeruginosa [1]; [4]
  MIC: 1 µg/mL
P. aeruginosa [1]; [5]
  MIC: 1 µg/mL
P. aeruginosa [1]; P. aeruginosa isolate 31, strain U7688-1
  MIC: 2 µg/mL
P. aeruginosa [1]; P. aeruginosa isolate 33, strain W5483-2
  MIC: 2 µg/mL
E. cloacae; [6]
  MIC: 1 µg/mL
E. cloacae; E. cloacae isolate 15, strain B5546
  MIC: 1 µg/mL
A. calcoaceticus; [7]
  MIC: 2 µg/mL
X. maltophila; [8]
  MIC: 128 µg/mL
X. maltophila; [9]
  MIC: 16 µg/mL
X. maltophila; [10]
  MIC: 1 µg/mL
X. maltophila; [11]
  MIC: 1 µg/mL
X. maltophila; [12]
  MIC: 8 µg/mL

## C[C@@H](O)[C@H]1C(=O)N2C(C(=O)O)=C(SCCN=CN)C[C@H]12 [Imipenem]
P. aeruginosa [1]; P. aeruginosa isolate 23, strain ATCC 27853
  MIC: 4 µg/mL
P. aeruginosa [1]; P. aeruginosa isolate 25, strain 923-1
  MIC: 2 µg/mL
P. aeruginosa [1]; P. aeruginosa isolate 26, strain 3101
  MIC: 4 µg/mL
P. aeruginosa [1]; [4]
  MIC: 8 µg/mL
P. aeruginosa [1]; [13]
  MIC: 8 µg/mL
P. aeruginosa [1]; P. aeruginosa isolate 29, strain 15545
  MIC: 128 µg/mL
P. aeruginosa [1]; [5]
  MIC: 128 µg/mL
P. aeruginosa [1]; P. aeruginosa isolate 32, strain W2897-1
  MIC: 128 µg/mL
E. cloacae; E. cloacae isolate 12, strain ATCC 13047
  MIC: 2 µg/mL
E. cloacae; [6]
  MIC: 2 µg/mL
E. cloacae; E. cloacae isolate 18, strain 3077
  MIC: 2 µg/mL
E. cloacae; E. cloacae isolate 19, strain 3356
  MIC: 2 µg/mL
E. cloacae; E. cloacae isolate 20, strain 14269
  MIC: 2 µg/mL
A. calcoaceticus; A. calcoaceticus isolate 3, strain 27
  MIC: 512 µg/mL
A. calcoaceticus; A. calcoaceticus isolate 4, strain 28
  MIC: 8 µg/mL
A. calcoaceticus; A. calcoaceticus isolate 7, strain 8222
  MIC: 2 µg/mL
A. calcoaceticus; A. calcoaceticus isolate 11, strain 8226
  MIC: 2 µg/mL
X. maltophila; X. maltophila isolate 34, strain ATCC 13637
  MIC: 512 µg/mL
X. maltophila; [14]
  MIC: 512 µg/mL
X. maltophila; [8]
  MIC: 512 µg/mL
X. maltophila; X. maltophila isolate 37, strain 3095
  MIC: 512 µg/mL
X. maltophila; [15]
  MIC: 512 µg/mL
X. maltophila; [9]
  MIC: 512 µg/mL
X. maltophila; [16]
  MIC: 512 µg/mL
X. maltophila; [17]
  MIC: 512 µg/mL
X. maltophila; [10]
  MIC: 512 µg/mL
X. maltophila; [11]
  MIC: 512 µg/mL
X. maltophila; [12]
  MIC: 512 µg/mL
X. maltophila; [18]
  MIC: 512 µg/mL

## KWWRRALQGLKTAGPAIQSVLNK [MBI21A2]
B. Subtilis
  MIC B. Subtilis: >128 µg/mL
E. coli
  MIC E. coli 0111:B4: 32 µg/mL
S. aureus
  MIC K147: >128 µg/mL
  MIC SAP: >128 µg/mL
E. faecalis
  MIC E. faecalis: >128 µg/mL
C610
  MIC C610: 16 µg/mL
S. epidermis
  MIC S. epi 0017: >128 µg/mL
P. aeruginosa [2]
  MIC H103: 128 µg/mL

## CC(C)(O/N=C(\C(=O)N[C@@H]1C(=O)N2C(C(=O)[O-])=C(C[n+]3ccccc3)CS[C@H]12)c1csc(N)n1)C(=O)O [Ceftazidime]
P. aeruginosa [1]; [3]
  MIC: 64 µg/mL
P. aeruginosa [1]; [4]
  MIC: 256 µg/mL
P. aeruginosa [1]; [13]
  MIC: 4 µg/mL
P. aeruginosa [1]; [5]
  MIC: 8 µg/mL
A. calcoaceticus; [7]
  MIC: 4 µg/mL
A. calcoaceticus; A. calcoaceticus isolate 5, strain 8220
  MIC: 8 µg/mL
X. maltophila; [14]
  MIC: 32 µg/mL
X. maltophila; [8]
  MIC: 16 µg/mL
X. maltophila; [15]
  MIC: 256 µg/mL
X. maltophila; [9]
  MIC: 128 µg/mL
X. maltophila; [16]
  MIC: 32 µg/mL
X. maltophila; [17]
  MIC: 8 µg/mL
X. maltophila; [11]
  MIC: 2 µg/mL
X. maltophila; [18]
  MIC: 128 µg/mL and 256 µg/mL

## KKSFFKKLTSVASSVLS [MBI21A14]
B. Subtilis
  MIC B. Subtilis: >128 µg/mL
E. coli
  MIC E. coli 0111:B4: >128 µg/mL
S. aureus
  MIC K147: >128 µg/mL
  MIC SAP: >128 µg/mL
E. faecalis
  MIC E. faecalis: >128 µg/mL
C610
  MIC C610: 128 µg/mL
S. epidermis
  MIC S. epi 0017: >128 µg/mL
P. aeruginosa [2]
  MIC H103: >128 µg/mL

## KWKSFIKKLTSVLKKVVTTALPALIS [MBI29A1]
B. Subtilis
  MIC B. Subtilis: 16 µg/mL
E. coli
  MIC E. coli 0111:B4: 4 µg/mL
S. aureus
  MIC K147: 16 µg/mL
  MIC SAP: 16 µg/mL
E. faecalis
  MIC E. faecalis: 64 µg/mL
C610
  MIC C610: 8 µg/mL
S. epidermis
  MIC S. epi 0017: 16 µg/mL
P. aeruginosa [2]
  MIC H103: 16 µg/mL

## KWKLFKKIGIGAVLKVLTTGLPALIS [CEME, reference compound]
E. coli; E. coli (UB1005), Table 1a
  MIC: 5 µg/mL
S. aureus; S. aureus (K 147)
  MIC: 32 µg/mL
S. aureus; S. aureus (SAP0017)
  MIC: 24 µg/mL
S. epidermis; S. epidermis, Table 1a
  MIC: 16 µg/mL
P. aeruginosa [2]; P. aeruginosa (H187), Table 1a
  MIC: 8 µg/mL
Candida albicans
  MIC: 64 µg/mL

— patent US6906035B2, “Antimicrobial cationic peptides” (priority 1995, dated 2005)
